The record followed here is patent publication US10787452B2 (Vertex Pharmaceuticals Incorporated, priority 2012, dated 2020).

The subject of the assay is HCT116 colorectal cancer cells. In words: Cisplatin sensitization assay (96 h cell viability MTS).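 Further: compound concentration needed to lower the Cisplatin-alone IC50 by a set fold.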 Format: cell-based. To be noted: 96 h MTS, compound plus Cisplatin. In short, it runs like this: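 Viability was measured by MTS after 96 h co-exposure of HCT116 colorectal cells to a full-matrix dilution grid of compound and cisplatin (2-fold steps, highest final concentration 10 μM, added together). Plates were kept at 37 °C in 5% CO2, and the MTS reagent was incubated for 1 h before reading.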
As to `CN(C)CCOc1cc(Cl)ncc1NC(=O)c1c(N)nn2cc(Cl)cnc12` [I-O-68, 2-amino-6-chloro-N-(6-chloro-4-(2-(dimethylamino)ethoxy)pyridin-3-yl)pyrazolo[1,5-a]pyrimidine-3-carboxamide], the “Cisplatin Sensitization Assay” value is listed as “++ (Compounds with a Cisplatin sensitization value >0.02 μM but <0.2 μM are marked with “++.”)”.
As for `Nc1nn2cc(Cl)cnc2c1C(=O)Nc1cnccc1Oc1cccnc1` [I-O-70, 2-amino-6-chloro-N-(4-(pyridin-3-yloxy)pyridin-3-yl)pyrazolo[1,5-a]pyrimidine-3-carboxamide], the entry is “+++ (Compounds with a Cisplatin sensitization value of <0.02 μM are marked with “+++.”)”.
As for `CN(C)CCOc1cc(C(F)(F)F)ncc1NC(=O)c1c(N)nn2cc(Cl)cnc12` [I-O-71, 2-amino-6-chloro-N-(4-(2-(dimethylamino)ethoxy)-6-(trifluoromethyl)pyridin-3-yl)pyrazolo[1,5-a]pyrimidine-3-carboxamide], the entry is “+ (Compounds with a Cisplatin sensitization value >0.2 μM but <5 μM are marked with “+.”)”; as for `Nc1nn2cc(Cl)cnc2c1C(=O)Nc1cnccc1OC1CC2(CNC2)C1` [I-O-72, N-(4-(2-azaspiro[3.3]heptan-6-yloxy)pyridin-3-yl)-2-amino-6-chloropyrazolo[1,5-a]pyrimidine-3-carboxamide], “+ (Compounds with a Cisplatin sensitization value >0.2 μM but <5 μM are marked with “+.”)”; as for `Nc1nn2cc(Cl)cnc2c1C(=O)Nc1cnccc1OC1CNC1` [I-O-73, 2-amino-N-(4-(azetidin-3-yloxy)pyridin-3-yl)-6-chloropyrazolo[1,5-a]pyrimidine-3-carboxamide], “+ (Compounds with a Cisplatin sensitization value >0.2 μM but <5 μM are marked with “+.”)”.
As for `Nc1nn2cc(Cl)cnc2c1C(=O)Nc1cnccc1O[C@H]1CCCNC1` [I-O-74, (S)-2-amino-6-chloro-N-(4-(piperidin-3-yloxy)pyridin-3-yl)pyrazolo[1,5-a]pyrimidine-3-carboxamide], the entry is “++ (Compounds with a Cisplatin sensitization value >0.02 μM but <0.2 μM are marked with “++.”)”; as for `Nc1nn2cc(Cl)cnc2c1C(=O)Nc1cnccc1OC1CCCNC1` (centres unmarked) [I-O-75, 2-amino-6-chloro-N-(4-(piperidin-3-yloxy)pyridin-3-yl)pyrazolo[1,5-a]pyrimidine-3-carboxamide], “++ (Compounds with a Cisplatin sensitization value >0.02 μM but <0.2 μM are marked with “++.”)”; as for `Nc1nn2cc(Cl)cnc2c1C(=O)Nc1cnccc1O[C@@H]1CCNC1` [I-O-77, (R)-2-amino-6-chloro-N-(4-(pyrrolidin-3-yloxy)pyridin-3-yl)pyrazolo[1,5-a]pyrimidine-3-carboxamide], “++ (Compounds with a Cisplatin sensitization value >0.02 μM but <0.2 μM are marked with “++.”)”.
Consider `Nc1nn2cc(Cl)cnc2c1C(=O)Nc1cnccc1O[C@H]1C[C@]2(CCN2)C1` [I-O-78, N-(4-((4s,6r)-1-azaspiro[3.3]heptan-6-yloxy)pyridin-3-yl)-2-amino-6-chloropyrazolo[1,5-a]pyrimidine-3-carboxamide], for which the “Cisplatin Sensitization Assay” value is on record as “+ (Compounds with a Cisplatin sensitization value >0.2 μM but <5 μM are marked with “+.”)”.
Turning to `Nc1nn2cc(Cl)cnc2c1C(=O)Nc1cnccc1O[C@H]1C[C@@]2(CCN2)C1` [I-O-79, N-(4-((4r,6s)-1-azaspiro[3.3]heptan-6-yloxy)pyridin-3-yl)-2-amino-6-chloropyrazolo[1,5-a]pyrimidine-3-carboxamide], the “Cisplatin Sensitization Assay” value is recorded as “++ (Compounds with a Cisplatin sensitization value >0.02 μM but <0.2 μM are marked with “++.”)”.
Consider `Nc1nn2cc(Cl)cnc2c1C(=O)Nc1cnccc1OC1CCNCC1` [I-O-80, 2-amino-6-chloro-N-(4-(piperidin-4-yloxy)pyridin-3-yl)pyrazolo[1,5-a]pyrimidine-3-carboxamide], for which the “Cisplatin Sensitization Assay” value is recorded as “+++ (Compounds with a Cisplatin sensitization value of <0.02 μM are marked with “+++.”)”.
As for `Nc1nn2cc(Cl)cnc2c1C(=O)Nc1cnccc1O[C@@H]1CCCNC1` [I-O-81, (R)-2-amino-6-chloro-N-(4-(piperidin-3-yloxy)pyridin-3-yl)pyrazolo[1,5-a]pyrimidine-3-carboxamide], the entry is “++ (Compounds with a Cisplatin sensitization value >0.02 μM but <0.2 μM are marked with “++.”)”; as for `N#CCc1cnc2c(C(=O)Nc3cnccc3OC3CNC3)c(N)nn2c1` [I-O-82, 2-amino-N-(4-(azetidin-3-yloxy)pyridin-3-yl)-6-(cyanomethyl)pyrazolo[1,5-a]pyrimidine-3-carboxamide], “++ (Compounds with a Cisplatin sensitization value >0.02 μM but <0.2 μM are marked with “++.”)”.
As for `N#CCc1cnc2c(C(=O)Nc3cnccc3OCCN)c(N)nn2c1` [I-O-83, 2-amino-N-(4-(2-aminoethoxy)pyridin-3-yl)-6-(cyanomethyl)pyrazolo[1,5-a]pyrimidine-3-carboxamide], the entry is “+++ (Compounds with a Cisplatin sensitization value of <0.02 μM are marked with “+++.”)”; as for `N#CCc1cnc2c(C(=O)Nc3cnccc3OC3CCNCC3)c(N)nn2c1` [I-O-84, 2-amino-6-(cyanomethyl)-N-(4-(piperidin-4-yloxy)pyridin-3-yl)pyrazolo[1,5-a]pyrimidine-3-carboxamide], “++ (Compounds with a Cisplatin sensitization value >0.02 μM but <0.2 μM are marked with “++.”)”; as for `Nc1nn2cc(F)cnc2c1C(=O)Nc1cnccc1O[C@H]1CCCNC1` [I-O-85, (S)-2-amino-6-fluoro-N-(4-(piperidin-3-yloxy)pyridin-3-yl)pyrazolo[1,5-a]pyrimidine-3-carboxamide], “+++ (Compounds with a Cisplatin sensitization value of <0.02 μM are marked with “+++.”)”.
As for `N#CCc1cnc2c(C(=O)Nc3cnccc3O[C@H]3CCNC3)c(N)nn2c1` [I-O-86, (S)-2-amino-6-(cyanomethyl)-N-(4-(pyrrolidin-3-yloxy)pyridin-3-yl)pyrazolo[1,5-a]pyrimidine-3-carboxamide], the entry is “++ (Compounds with a Cisplatin sensitization value >0.02 μM but <0.2 μM are marked with “++.”)”; as for `CC(C)(C)Oc1ccncc1NC(=O)c1c(N)nn2cc(F)cnc12` [I-O-88, 2-amino-N-(4-(tert-butoxy)pyridin-3-yl)-6-fluoropyrazolo[1,5-a]pyrimidine-3-carboxamide], “+++ (Compounds with a Cisplatin sensitization value of <0.02 μM are marked with “+++.”)”.
For the compound `CN1CCC(Oc2c(F)cncc2NC(=O)c2c(N)nn3cc(F)cnc23)CC1` [I-O-89, 2-amino-6-fluoro-N-(5-fluoro-4-((1-methylpiperidin-4-yl)oxy)pyridin-3-yl)pyrazolo[1,5-a]pyrimidine-3-carboxamide], the “Cisplatin Sensitization Assay” value is on record as “++ (Compounds with a Cisplatin sensitization value >0.02 μM but <0.2 μM are marked with “++.”)”.
Under `CNc1cc(OC)c(NC(=O)c2c(N)nn3cc(F)cnc23)cn1` [I-O-90, 2-amino-6-fluoro-N-(4-methoxy-6-(methylamino)pyridin-3-yl)pyrazolo[1,5-a]pyrimidine-3-carboxamide] stands “+ (Compounds with a Cisplatin sensitization value >0.2 μM but <5 μM are marked with “+.”)”.
